Laboratory results: ChEMBL document CHEMBL1201862, “PubChem BioAssay data set” (2004)
Active and inactive are the calls of the source.

Columns and labels:
[1] = miR-122 activators in hepatoma reporter cells, dose response, cell-based, Huh7 psiCHECK-miR122, Renilla luciferase, cherry-picked (AID 651956); assay type: functional;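 note: huh7 hepatoma cells stably carrying a psiCHECK-2 miR-122 sensor plasmid; renilla luciferase signal reporting endogenous miR-122 activity after 48 h compound exposure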
[2] = growth suppression of PTEN-null colon cells, dose response, cell-based, HCT116 PTEN knockout (AID 1047); assay type: functional;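 note: HCT116 colon tumor cells with PTEN knocked out; cells exposed to compound for 60 hours before readout; potency for loss of cell viability measured by luminescence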
[3] = NIH-3T3 fibroblast cytotoxicity, dose response, cytotoxicity control, cell-based, fluorescence, Alamar Blue, secondary assay (AID 2327); assay type: functional;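 note: NIH-3T3 mouse fibroblasts cultured with fluconazole at 8 µg/mL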
[4] = inhibitors of intracellular T. cruzi replication, confirmation, NIH3T3 host cells, beta-gal luminescence (AID 2044); assay type: functional, cell-based;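 note: intracellular parasites grown in NIH/3T3 mouse fibroblasts as host cells; luminescent beta-galactosidase reporter signal from transgenic T. cruzi replicating inside host cells; inhibitors lower the luminescence signal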
[5] = growth suppression of beta-catenin-knockout colon cells, dose response, cell-based, HCT116, human colon tumor (AID 1045); assay type: functional;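 note: HCT116 colon tumor cells with beta catenin knocked out; cells exposed to compound for 60 hours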
[6] = HEK293T cytotoxicity, dose response, cytotoxicity control for miR-122 modulator project, cell-based, activator set, cherry-pick (AID 720690); assay type: functional;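 note: HEK293T human cells scored for general mammalian cytotoxicity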
[7] = C. albicans growth with fluconazole, confirmation, fluorescence, retest (AID 2467); assay type: functional, cell-based
[8] = cytotoxicity toward NIH3T3 fibroblasts, dose response, counter-screen, cell-based, ATP luminescence, mouse fibroblasts (AID 2010); assay type: functional;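 note: cells exposed to compound for about 90 hours before reading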
[9] = molecular target: T1, Corticotropin-releasing factor receptor 2/Corticotropin-releasing factor-binding protein (Homo sapiens, UniProt P24387+Q13324); assay: Dose Response confirmation of uHTS hits for small molecule antagonists of the CRF-binding protein and CRF-R2 receptor complex.; assay type: functional; details: read-out: IC50_Mean
T1 sequence (Q13324 whole entry): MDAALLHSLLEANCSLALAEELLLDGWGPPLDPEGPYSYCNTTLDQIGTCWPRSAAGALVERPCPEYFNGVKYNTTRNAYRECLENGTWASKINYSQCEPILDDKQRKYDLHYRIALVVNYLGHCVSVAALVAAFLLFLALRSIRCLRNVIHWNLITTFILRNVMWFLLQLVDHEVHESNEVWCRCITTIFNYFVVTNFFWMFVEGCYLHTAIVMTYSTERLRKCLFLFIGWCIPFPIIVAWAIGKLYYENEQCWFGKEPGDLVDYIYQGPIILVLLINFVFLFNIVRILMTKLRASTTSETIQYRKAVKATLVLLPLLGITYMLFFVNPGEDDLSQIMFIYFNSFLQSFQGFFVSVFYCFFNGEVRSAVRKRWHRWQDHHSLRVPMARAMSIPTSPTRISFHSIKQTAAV
T1 sequence (P24387 whole entry): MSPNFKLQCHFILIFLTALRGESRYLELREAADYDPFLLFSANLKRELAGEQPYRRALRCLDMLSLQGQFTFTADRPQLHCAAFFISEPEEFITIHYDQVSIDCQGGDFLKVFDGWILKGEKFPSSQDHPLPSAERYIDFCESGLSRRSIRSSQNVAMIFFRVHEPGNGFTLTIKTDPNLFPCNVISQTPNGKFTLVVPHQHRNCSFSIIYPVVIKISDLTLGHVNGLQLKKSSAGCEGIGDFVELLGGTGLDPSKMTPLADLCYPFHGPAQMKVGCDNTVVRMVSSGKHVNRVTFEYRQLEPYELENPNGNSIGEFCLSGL

[10] = CRF-BP/CRF-R2 complex antagonists, dose response, cell-based, uHTS hits, 384-well (AID 651639); assay type: functional, Homo sapiens; details: read-out: IC50_Mean
[11] = molecular target: T1, Corticotropin-releasing factor receptor 2/Corticotropin-releasing factor-binding protein; assay: activators of CRF receptor 2 with binding protein – uHTS hits, confirmation (AID 602473); assay type: functional; details: read-out: EC50_Mean
[12] = molecular target: ADP-ribosylation factor GTPase-activating protein 1 (Rattus norvegicus, UniProt Q62848); assay: Fluorescence polarization-based biochemical high throughput dose response screening assay to identify inhibitors of ADP-ribosylation factor GTPase activating protein 1 (ARFGAP1).; assay type: functional
[13] = MDA-MB-231 cell growth inhibition, dose response, cytotoxicity control for RAD54 inhibitor project, CellTiter-Glo luminescence, cherry-pick (AID 651692); assay type: functional, cell-based
[14] = tested on: Saccharomyces cerevisiae; assay: NALP1 inhibitor project selectivity study, Caspase-1/ASC signal blockade IC50 in S. cerevisiae (AID 488863); assay type: functional, organism-based
[15] = Luminescence Cell-Based Dose Retest to Confirm Inhibitors of Cancer Stem Cells. [Related pubchem assays (depositor defined):AID2717, AID2721]; assay type: functional; details: Homo sapiens
[16] = molecular target: T2, DNA repair protein RAD52 homolog (Homo sapiens, UniProt P43351); assay type: functional, biochemical
T2 sequence (P43351 whole entry): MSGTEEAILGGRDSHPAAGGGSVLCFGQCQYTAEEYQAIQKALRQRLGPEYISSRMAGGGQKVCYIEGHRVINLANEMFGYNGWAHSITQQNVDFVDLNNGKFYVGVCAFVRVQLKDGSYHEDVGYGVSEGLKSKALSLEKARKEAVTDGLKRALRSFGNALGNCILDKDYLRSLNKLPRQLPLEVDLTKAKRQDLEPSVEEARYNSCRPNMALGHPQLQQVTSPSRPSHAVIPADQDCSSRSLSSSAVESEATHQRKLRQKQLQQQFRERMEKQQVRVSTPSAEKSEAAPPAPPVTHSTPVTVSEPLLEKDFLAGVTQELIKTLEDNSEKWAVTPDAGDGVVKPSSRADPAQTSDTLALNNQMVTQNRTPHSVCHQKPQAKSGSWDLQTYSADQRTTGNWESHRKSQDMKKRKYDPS

[17] = molecular target: T3, NACHT, LRR and PYD domains-containing protein 1 (Homo sapiens, UniProt Q9C000); assay: NALP1 inhibitors in yeast, dose response, luminescent (AID 488860); assay type: functional
T3 sequence (Q9C000 whole entry): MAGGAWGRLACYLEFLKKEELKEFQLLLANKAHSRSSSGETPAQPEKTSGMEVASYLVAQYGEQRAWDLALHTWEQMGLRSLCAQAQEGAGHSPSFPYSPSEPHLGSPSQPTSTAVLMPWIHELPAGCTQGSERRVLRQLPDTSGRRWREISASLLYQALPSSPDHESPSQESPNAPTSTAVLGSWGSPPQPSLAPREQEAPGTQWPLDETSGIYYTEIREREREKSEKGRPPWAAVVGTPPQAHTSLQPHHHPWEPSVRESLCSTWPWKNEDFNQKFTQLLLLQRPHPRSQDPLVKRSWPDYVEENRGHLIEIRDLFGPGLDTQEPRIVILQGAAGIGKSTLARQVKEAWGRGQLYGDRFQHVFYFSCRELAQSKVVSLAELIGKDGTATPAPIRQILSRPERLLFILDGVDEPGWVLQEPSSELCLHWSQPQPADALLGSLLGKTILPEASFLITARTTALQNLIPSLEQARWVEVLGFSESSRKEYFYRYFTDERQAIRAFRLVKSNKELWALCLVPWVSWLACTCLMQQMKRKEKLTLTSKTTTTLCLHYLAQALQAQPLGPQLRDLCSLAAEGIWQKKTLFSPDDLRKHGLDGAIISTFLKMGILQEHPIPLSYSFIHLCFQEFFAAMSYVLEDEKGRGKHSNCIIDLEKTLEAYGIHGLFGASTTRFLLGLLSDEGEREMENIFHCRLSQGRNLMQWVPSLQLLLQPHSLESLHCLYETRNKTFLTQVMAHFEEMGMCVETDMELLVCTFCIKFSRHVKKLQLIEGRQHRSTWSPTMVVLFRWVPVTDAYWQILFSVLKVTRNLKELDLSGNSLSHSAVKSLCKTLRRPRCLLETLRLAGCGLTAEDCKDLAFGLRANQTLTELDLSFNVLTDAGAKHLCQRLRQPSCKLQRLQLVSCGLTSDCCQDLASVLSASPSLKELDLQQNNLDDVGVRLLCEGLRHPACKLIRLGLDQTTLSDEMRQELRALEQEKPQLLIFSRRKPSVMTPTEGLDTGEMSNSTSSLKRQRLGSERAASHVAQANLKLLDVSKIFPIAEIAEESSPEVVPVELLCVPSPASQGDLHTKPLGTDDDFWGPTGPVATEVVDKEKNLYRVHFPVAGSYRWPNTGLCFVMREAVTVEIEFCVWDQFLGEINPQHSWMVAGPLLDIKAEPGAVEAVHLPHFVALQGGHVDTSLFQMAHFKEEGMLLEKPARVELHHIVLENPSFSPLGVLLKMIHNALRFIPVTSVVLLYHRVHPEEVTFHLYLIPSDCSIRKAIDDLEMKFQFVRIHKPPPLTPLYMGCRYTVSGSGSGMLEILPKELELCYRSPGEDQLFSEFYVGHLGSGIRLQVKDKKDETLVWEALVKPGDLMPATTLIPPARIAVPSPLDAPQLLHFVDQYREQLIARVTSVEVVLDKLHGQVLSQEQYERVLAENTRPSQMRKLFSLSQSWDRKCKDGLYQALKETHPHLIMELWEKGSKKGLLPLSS

[18] = molecular target: T4, DNA repair and recombination protein RAD54-like (Homo sapiens, UniProt Q92698); assay: inhibitors of human RAD54 branch migration, confirmation, biochemical, fluorescence, cherry-picked samples, dose series (AID 651657); assay type: functional
T4 sequence (Q92698 whole entry): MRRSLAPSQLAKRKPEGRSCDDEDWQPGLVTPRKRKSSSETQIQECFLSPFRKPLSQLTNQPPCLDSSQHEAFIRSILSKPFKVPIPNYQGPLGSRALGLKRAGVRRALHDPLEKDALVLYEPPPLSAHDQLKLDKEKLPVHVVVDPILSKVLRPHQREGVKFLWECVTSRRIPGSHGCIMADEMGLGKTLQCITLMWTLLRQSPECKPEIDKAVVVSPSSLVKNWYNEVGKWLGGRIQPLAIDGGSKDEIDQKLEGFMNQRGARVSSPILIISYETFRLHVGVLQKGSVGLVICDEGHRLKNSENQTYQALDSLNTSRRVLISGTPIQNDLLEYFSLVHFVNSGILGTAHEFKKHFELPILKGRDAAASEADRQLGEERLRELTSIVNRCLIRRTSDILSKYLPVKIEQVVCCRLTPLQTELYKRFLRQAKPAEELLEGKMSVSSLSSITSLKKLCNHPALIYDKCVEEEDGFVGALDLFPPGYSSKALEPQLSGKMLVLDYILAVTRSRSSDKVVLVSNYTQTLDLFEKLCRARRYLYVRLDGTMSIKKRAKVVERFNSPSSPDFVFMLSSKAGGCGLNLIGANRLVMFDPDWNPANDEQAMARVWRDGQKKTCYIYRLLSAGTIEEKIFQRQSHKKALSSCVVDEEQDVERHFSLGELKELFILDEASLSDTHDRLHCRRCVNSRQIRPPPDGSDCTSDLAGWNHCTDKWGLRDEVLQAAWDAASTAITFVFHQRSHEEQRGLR

[19] = microbe, parasite or virus in culture; assay type: functional; details: Mycobacterium tuberculosis
[20] = molecular target: T5, Low molecular weight phosphotyrosine protein phosphatase (Homo sapiens, UniProt P24666); assay type: functional; details: read-out: IC50_Mean
T5 sequence (P24666 whole entry): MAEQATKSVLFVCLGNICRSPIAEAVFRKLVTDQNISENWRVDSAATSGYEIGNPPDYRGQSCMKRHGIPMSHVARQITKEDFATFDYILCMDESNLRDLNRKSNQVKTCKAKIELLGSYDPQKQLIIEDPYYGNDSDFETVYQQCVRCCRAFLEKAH

[21] = molecular target: T5, Low molecular weight phosphotyrosine protein phosphatase; assay type: functional; details: read-out: IC50_Mean; remark: listed apart in the source
[22] = molecular target: T6, Tyrosine-protein phosphatase non-receptor type 22 (Homo sapiens, UniProt Q9Y2R2); assay: LYP phosphatase inhibition for selectivity, dose response, selectivity assay for LMPTP inhibitor project, biochemical, fluorescence, LYP catalytic domain (AID 652006); assay type: functional; details: read-out: IC50_Mean
T6 sequence (Q9Y2R2 whole entry): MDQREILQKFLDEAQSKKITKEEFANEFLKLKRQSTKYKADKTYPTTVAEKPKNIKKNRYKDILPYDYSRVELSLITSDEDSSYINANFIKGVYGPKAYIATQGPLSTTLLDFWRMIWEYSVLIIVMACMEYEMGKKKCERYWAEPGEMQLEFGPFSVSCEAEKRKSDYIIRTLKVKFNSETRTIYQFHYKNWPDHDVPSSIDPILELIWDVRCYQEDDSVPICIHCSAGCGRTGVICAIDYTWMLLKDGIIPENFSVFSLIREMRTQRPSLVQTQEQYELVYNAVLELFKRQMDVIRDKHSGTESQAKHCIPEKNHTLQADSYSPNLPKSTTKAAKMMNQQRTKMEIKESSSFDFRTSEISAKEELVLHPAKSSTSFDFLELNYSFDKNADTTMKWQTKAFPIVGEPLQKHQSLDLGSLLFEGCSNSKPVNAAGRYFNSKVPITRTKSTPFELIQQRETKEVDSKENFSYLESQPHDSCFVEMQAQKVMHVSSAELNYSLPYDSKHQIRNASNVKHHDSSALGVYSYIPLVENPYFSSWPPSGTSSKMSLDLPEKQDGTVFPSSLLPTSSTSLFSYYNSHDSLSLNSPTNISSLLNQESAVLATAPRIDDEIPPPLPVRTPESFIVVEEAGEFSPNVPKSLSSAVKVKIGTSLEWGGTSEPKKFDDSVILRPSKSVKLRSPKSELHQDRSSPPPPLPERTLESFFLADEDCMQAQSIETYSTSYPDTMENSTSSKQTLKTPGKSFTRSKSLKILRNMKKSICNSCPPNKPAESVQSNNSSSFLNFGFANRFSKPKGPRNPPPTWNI

Sequence of ADP-ribosylation factor GTPase-activating protein 1 (Q62848 whole entry): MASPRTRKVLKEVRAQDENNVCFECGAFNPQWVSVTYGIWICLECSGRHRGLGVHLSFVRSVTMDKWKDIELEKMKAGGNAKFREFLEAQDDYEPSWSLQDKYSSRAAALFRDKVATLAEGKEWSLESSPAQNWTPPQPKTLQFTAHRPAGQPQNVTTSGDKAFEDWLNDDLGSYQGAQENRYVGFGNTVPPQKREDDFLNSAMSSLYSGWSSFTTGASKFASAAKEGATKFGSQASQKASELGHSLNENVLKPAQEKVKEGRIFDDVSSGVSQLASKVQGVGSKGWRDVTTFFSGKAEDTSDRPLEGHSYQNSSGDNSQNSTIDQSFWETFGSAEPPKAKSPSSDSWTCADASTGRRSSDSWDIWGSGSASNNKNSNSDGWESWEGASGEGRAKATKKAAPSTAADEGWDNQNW

SMILES: N=c1c2c(-c3ccccc3)c(-c3ccccc3)n(Cc3ccccc3)c2ncn1CCO
- AC50 [1]: 30.5 µM (active)
- EC50 [2]: 0.555 µM (active)
- EC50 [3]: > 150 µM (inactive)
- EC50 [4]: 2.42 µM (active)
- EC50 [5]: 0.637 µM (active)
- AC50 [6]: 23.4 µM (active)
- EC50 [7]: > 38 µM (not active)
- EC50 [8]: > 30 µM (not active)

SMILES: CCN(Cc1ccccc1)C(c1cccc(C#N)c1)c1nnnn1C(C)(C)C (centres undefined)
- IC50 [9]: 1 µM (active)
- IC50 [10]: 7.23 µM (active)
- EC50 [11]: > 53 µM (inactive)

SMILES: O=C(Nc1ccc(-c2nc3ccccc3[nH]2)cc1)c1ccc2c(c1)OCO2
- IC50 [12]: 42 µM (inactive)

SMILES: OC(CN1CCCCC1)Cn1c2ccc(Cl)cc2c2cc(Cl)ccc21 (centres undefined)
- AC50 [13]: 32.1 µM (active)
- IC50 [14]: 7.1 µM (active)
- AC50 [15]: 5.53 µM (active)
- AC50 [16]: 12.1 µM (active)
- EC50 [4]: 2.43 µM (active)
- IC50 [17]: 10.2 µM (active)
- AC50 [18]: 27.2 µM (active)
- CC50 [19]: 14.5 µM (active)
- EC50 [8]: 10.8 µM (active)

SMILES: O=C(N/N=C\C=C\c1ccc(Br)cc1)c1ccc2c(c1)OCO2
- IC50 [20]: 7.43 µM (active)
- IC50 [21]: 11.6 µM (active)
- IC50 [22]: 23.5 µM (inactive)
